These results are taken from patent US7803801B2, “Aminopyridine compounds having Syk inhibitory activity” (Japan Tobacco, Inc., priority 2005, dated 2010).

Where a name gives a salt, the structure may show the parent alone.

One test has as its system cultured human mast cells. The experiment in a line: Degranulation inhibition test using cultured human mast cells (IgE cross-linking, β-Hexosaminidase release). It is filed as cell-based. To be noted: Mast cell; cultured human mast cells, anti-hIgE stimulation, β-Hexosaminidase index, average; read-out: human degranulation ave. IC50. The procedure: Degranulation Inhibition Test Using Cultured Human Mast Cells
(1) Separation of Hematopoietic Stem Cells;
After 10 to 60 mL of umbilical cord blood collected with heparin was diluted with an equivalent amount of buffer (0.5% BSA, 2 mM EDTA/PBS-), it was superposed on Ficoll-Paque (Amersham Pharmacia Biotech) (Ficoll/Blood (1:2)) and mononuclear leukocyte fraction was collected by centrifuging it at 400 G (1350 rpm) 4° C. for 30 minutes. After centrifugal washing (1500 rpm, 5 min, 4° C.×3) with buffer, the number of cells was counted and 0.1 mL of CD34 Progenitor Cell Isolation Kit (Miltenyi Biotec), Reagent A1 (Fc blocking) was added for 1×10^8 cells. After agitation, 0.1 mL of Reagent A2 (CD34 antibody-hapten) was added (final volume 0.5 mL/1×10^8 cells) and incubated at 9° C. for further 15 minutes after agitation. After centrifugal washing (1500 rpm, 5 min, 4° C.×3), it was resuspeded in a buffer (0.4 mL) and 0.1 mL of Reagent B (anti hapten antibody-microbeads) was added and agitated (final volume 0.5 mL/1×10^8 cells) and incubated at 9° C. for further 15 minutes. After centrifugal washing (1500 rpm, 5 min, 4° C.×2), it was resuspeded in a buffer (0.5 mL) and loaded on CS column (Miltenyi Biotec) set in MACS (MAgnetic Cell Sorting system; Miltenyi Biotec, Daiichi Pure Chemicals) and washed with 30 mL of buffer to remove CD34^− cells. The column was separated from MACS and eluted with 30 mL of buffer and CD34^+ cells bound to the column were collected and used as a hematopoietic stem cell population.
(2) Acquisition of Human Mast Cells by Long-Term Culturing of Hematopoietic Stem Cells;
The CD34^+ cells separated in (1) were resuspended in Iscove's Modified Dulbecco's Medium (IMDM, Gibco) containing human (rh)SCF (1 μg/mL, Peprotech), rhIL-6 (0.5 μg/mL, Peprotech), rhIL-3 (10 ng/mL, Peprotech), 1% Insulin-Transferrin (Gibco), 5×10^−5M 2-ME (Gibco), 0.1% BSA (Sigma) in a density of 1×10^6 cells/ml and disseminated on 24-well culture plate with a dose of 0.1 mL/well and 0.9 ml of IMDM (Methocult SF^BIT StemCell technology) containing 0.9% methyl cellulose was added and culturing was started. The above culture medium (excluding methyl cellulose) was added in a week and after that 100 μL/well of the above culture medium (further excluding IL-3) was added at an interval of every once a week so that cells were diluted to maintain 10^5 cells/mL/well order and cultured more than about 8 weeks and thereby human culture mast cells were obtained.
(3) Expression Enhancement of FcεRI and Inhibition Test IgE Cross-Linking Stimulating Degranulation;
rhIL-4 (final concentration 1 ng/mL, R & D) and Homo sapiens(h) IgE (final concentration 0.5 μg/mL, CHEMICON) were added to the obtained human culture mast cells, and they were incubated for 5 days to enhance the expression of FcεRI. After incubation, cells were collected and, after centrifugal washing (IMDM), they were disseminated on 96-well culture plate in 5×10^4 cells/80 μL/well.
10 μL of a compound 10-fold diluted with IMDM after dissolved in DMSO (DMSO final concentration 0.1%) was added and reacted at 37° C. for 10 minutes. Further, 10 μL of anti-hIgE Ab (CHEMICON) adjusted to 100 μg/mL (final concentration 10 μg/mL) was added and degranulation was caused by being stimulated at 37° C. for 30 minutes. After centrifugation, 50 μL/well of the supernatant was collected and stored at −40° C. untill the quantity of degranulation was measured. The measurement of quantity of degranulation was performed using enzymatic activity of β-Hexosaminidase contained in the granulates as an index. That is, an equivalent amount of p-nitrophenyl-N-acetyl-β-D-glucosaminide (1 mM) (containing 0.1% Triton X-100) which is a substrate of β-Hexosaminidase was added to 50 μL of the culture filtrate, and after reacted at 37° C. for 2 hours, the reaction was terminated by using 100 μL of Carbonate buffer (0.1M, pH 10). […]
As to `CC(=O)Nc1ncc(-c2cccc(Nc3cc(C)ccn3)n2)s1` [Compound A-23], the IC50 was in the range of 100 to 1000 nM.

The target in a further test is GST-Syk Full Protein (human) (Homo sapiens, UniProt P43405). The test is described as follows: Syk kinase inhibition test (HTRF method). It is filed as biochemical. To be noted: Tables 1-x, compounds A; read-out: sykHTRF ave IC50. A digest of the protocol:
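HTRF read-out: after EDTA termination and 1 h with XL665-streptavidin and Eu-anti-phosphotyrosine, the 665/620 nm ratio was measured. The reaction ran 30 min at 20–25 °C with final 6.4 nM human GST-Syk, 250 nM biotinylated peptide, 100 μM ATP, pH 7.0 HEPES buffer, 2% DMSO.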
On the technique in general: TR-FRET usually uses a lanthanide donor and a delayed reading to cut background.
Consider `O=C(O)C(F)C1CCN(c2ncc(-c3cccc(Nc4ccccn4)n3)s2)CC1` (centres unmarked) [Compound A-716, fluoro-(1-{5-[6-(pyridin-2-ylamino)pyridin-2-yl]thiazol-2-yl}piperidin-4-yl)acetic acid dihydrochloride], for which the IC50 is below 100 nM.

For the molecule `CC(C)(O)c1ccnc(Nc2cccc(-c3cnc(N4CCC(CC(=O)O)CC4)s3)n2)c1` [Compound A-717, [1-(5-{6-[4-(1-hydroxy-1-methylethyl)pyridin-2-ylamino]pyridin-2-yl}thiazol-2-yl)piperidin-4-yl]acetic acid dihydrochloride], the concentration for half-maximal inhibition (IC50) was below 100 nM.

Consider `Cc1ccnc(Nc2cccc(-c3cnc(N4CCC(C(C)(C)C(=O)O)CC4)s3)n2)c1` [Compound A-718, 2-methyl-2-(1-{5-[6-(4-methylpyridin-2-ylamino)pyridin-2-yl]thiazol-2-yl}piperidin-4-yl)propionic acid dihydrochloride], for which the IC50 was below 100 nM.

Turning to `Cc1ccnc(Nc2cccc(-c3cnc(N4CCCC(CCCCC(=O)O)C4)s3)n2)c1` (centres unmarked) [Compound A-719, 5-(1-{5-[6-(4-methylpyridin-2-ylamino)pyridin-2-yl]thiazol-2-yl}piperidin-3-yl)pentanoic acid dihydrochloride], the IC50 is below 100 nM.

`Cc1ccnc(Nc2cccc(-c3cnc(CN(C)C(C)(C)C(N)=O)s3)n2)c1` [Compound A-720, 2-methyl-2-(N-methyl-N-{5-[6-(4-methylpyridin-2-ylamino)pyridin-2-yl]thiazol-2-ylmethyl}amino)propionamide]: the IC50 was below 100 nM.

Still in this test, the particulars now being: Tables 2-x, thiophene compounds B; read-out: sykHTRK ave IC50.
In the case of `CC(=O)c1ccc(-c2cccc(N(C(C)=O)c3cc(C)ccn3)n2)s1` [Compound B-89], the IC50 was above 1000 nM.

As to `CC(=O)c1ccc(-c2cccc(N(C)c3cc(C)ccn3)n2)s1` [Compound B-90], the IC50 was above 1000 nM.

As for `Cc1ccnc(Nc2cccc(-c3ccc(COc4ccc(C(=O)O)cc4)s3)n2)c1` [Compound B-105], the IC50 was in the range of 100 to 1000 nM.

`Cc1ccnc(Nc2cccc(-c3ccc(CN4CCC(C(=O)O)CC4)s3)n2)c1` [Compound B-106]: the IC50 was in the range of 100 to 1000 nM.

In the case of `Cc1ccnc(Nc2cccc(-c3ccc(CN4CCc5cc(C(=O)O)ccc5C4)s3)n2)c1` [Compound B-107], the IC50 lay within 100 to 1000 nM.

For `Cc1ccnc(Nc2cccc(-c3ccc(C(C)OCc4ccc(C(=O)O)cc4)s3)n2)c1` (centres unmarked) [Compound B-108], the IC50 fell in the range of 100 to 1000 nM.

Take `Cc1ccnc(Nc2cccc(-c3ccc(C(O)C(F)(F)C(=O)O)s3)n2)c1` (centres unmarked) [Compound B-109, 2,2-difluoro-3-hydroxy-3-{5-[6-(4-methylpyridin-2-ylamino)pyridin-2-yl]thiophen-2-yl}propionic acid]: the IC50 was below 100 nM.

In the case of `Cc1ccnc(Nc2cccc(-c3ccc(CN4CCCc5ccc(C(=O)O)cc54)s3)n2)c1` [Compound B-110], the IC50 lay within 100 to 1000 nM.

Turning to `Cc1ccnc(Nc2cccc(-c3ccc(C(=O)NC[C@H]4CC[C@H](C(=O)O)CC4)s3)n2)c1` [Compound B-111], the IC50 fell in the range of 100 to 1000 nM.

On to `Cc1ccnc(Nc2cccc(-c3ccc(C(=O)NCc4ccc(C(=O)O)cc4)s3)n2)c1` [Compound B-112], for which the IC50 was 100 to 1000 nM.

Consider `Cc1ccnc(Nc2cccc(-c3ccc(C(=O)N4CCC(CC(=O)O)CC4)s3)n2)c1` [Compound B-113], for which the IC50 was in the range of 100 to 1000 nM.

As for `C/C(=C\C(=O)O)c1ccc(-c2cccc(Nc3cc(C)ccn3)n2)s1` [Compound B-114], the IC50 fell in the range of 100 to 1000 nM.

With `Cc1ccnc(Nc2cccc(-c3ccc(C(=O)N4CCC(C(=O)O)CC4)s3)n2)c1` [Compound B-115], the IC50 is 100 to 1000 nM.

As for `Cc1ccnc(Nc2cccc(-c3ccc(CNCc4ccc(C(=O)O)cc4)s3)n2)c1` [Compound B-116, 4-[({5-[6-(4-methylpyridin-2-ylamino)pyridin-2-yl]thiophen-2-ylmethyl}amino)methyl]benzoic acid], the IC50 is below 100 nM.

As to `Cc1ccnc(Nc2cccc(-c3ccc(C(=O)N[C@H](C(=O)O)C(C)C)s3)n2)c1` [Compound B-117], the IC50 fell in the range of 100 to 1000 nM.

Consider `Cc1ccnc(Nc2cccc(-c3ccc(CNC[C@H]4CC[C@H](C(=O)O)CC4)s3)n2)c1` [Compound B-118], for which the IC50 fell in the range of 100 to 1000 nM.

Consider `CC(=O)N(Cc1ccc(C(=O)O)cc1)Cc1ccc(-c2cccc(Nc3cc(C)ccn3)n2)s1` [Compound B-119, 4-[(N-acetyl-N-{5-[6-(4-methylpyridin-2-ylamino)pyridin-2-yl]thiophen-2-ylmethyl}amino)methyl]benzoic acid], for which the IC50 is below 100 nM.

`CC(=O)N(Cc1ccc(-c2cccc(Nc3cc(C)ccn3)n2)s1)C[C@H]1CC[C@H](C(=O)O)CC1` [Compound B-120, trans-4-[(N-acetyl-N-{5-[6-(4-methylpyridin-2-ylamino)pyridin-2-yl]thiophen-2-ylmethyl}amino)methyl]cyclohexanecarboxylic acid]: the IC50 is below 100 nM.

Take `Cc1ccnc(Nc2cccc(-c3ccc(CNC(=O)[C@H]4CC[C@H](C(=O)O)CC4)s3)n2)c1` [Compound B-121]: the IC50 lay within 100 to 1000 nM.

Turning to `Cc1ccnc(Nc2cccc(-c3ccc(C(=O)N(C)Cc4ccc(C(=O)O)cc4)s3)n2)c1` [Compound B-122], the IC50 fell in the range of 100 to 1000 nM.

As for `Cc1ccnc(Nc2cccc(-c3ccc(CN(C)C(=O)[C@H]4CC[C@H](C(=O)O)CC4)s3)n2)c1` [Compound B-123], the IC50 is 100 to 1000 nM.

Take `CC(=O)N(CCC(=O)O)Cc1ccc(-c2cccc(Nc3cc(C)ccn3)n2)s1` [Compound B-124, 3-(N-acetyl-N-{5-[6-(4-methylpyridin-2-ylamino)pyridin-2-yl]thiophen-2-ylmethyl}amino)propionic acid hydrochloride]: the half-inhibitory concentration (IC50) was below 100 nM.

Regarding `Cc1ccnc(Nc2cccc(-c3ccc(CN(C)C(=O)c4ccc(C(=O)O)cc4)s3)n2)c1` [Compound B-125], the IC50 was 100 to 1000 nM.

Regarding `Cc1ccnc(Nc2cccc(-c3ccc(CN(Cc4ccccc4)C(=O)CCC(=O)O)s3)n2)c1` [Compound B-126], the IC50 lay within 100 to 1000 nM.

As to `Cc1ccnc(Nc2cccc(-c3ccc(CN(Cc4ccc(C(=O)O)cc4)C(=O)C(C)C)s3)n2)c1` [Compound B-127, 4-[(N-isobutyryl-N-{5-[6-(4-methylpyridin-2-ylamino)pyridin-2-yl]thiophen-2-ylmethyl}amino)methyl]benzoic acid], the IC50 is below 100 nM.

Turning to `Cc1ccnc(Nc2cccc(-c3ccc(CN(Cc4ccc(C(=O)O)cc4)C(=O)CO)s3)n2)c1` [Compound B-128, 4-[(N-(2-hydroxyacetyl)-N-{5-[6-(4-methylpyridin-2-ylamino)pyridin-2-yl]thiophen-2-ylmethyl}amino)methyl]benzoic acid], the IC50 is below 100 nM.

The term IC50 denotes the point on the concentration scale where inhibition reaches its midpoint.
